Measured values reported in patent publication USRE50724E1, “4-membered ring carboxamides used as nematicides” (SYNGENTA CROP PROTECTION AG, priority 2013, dated 2026).

Assays:
Heterodera schachtii = Heterodera schachtii (sugar beet cyst nematode), nematicide, contact activity: juvenile paralysis in 16-well assay plates; assay type: in vivo; details: 200 ppm, approx. 500 juveniles per well, 24 hours incubation at 25° C. in darkness, read-out: nematode immobilization compared to the untreated control
Description: Heterodera schachtii (Sugar Beet Cyst Nematode), Nematicide, Contact Activity
The tested application rate of each compound was 200 ppm. All solutions were brought to a concentration of 400 ppm, respectively, as they were subsequently diluted by adding the equivalent amount of water containing juvenile nematodes. After preparation of the suspensions, 1 ml of each suspension and concentration was transferred to 16-well assay plates with a total of three replicates per treatment. Approximately 500 juveniles of Heterodera schachtii were added in 1 ml of water to each well. Nematodes in water served as controls. The plates were placed in a dark box and stored at room temperature. Nematode paralysis was determined after 24 hours incubation at 25° C. in darkness.

Meloidogyne spp. = Meloidogyne spp. (root-knot nematode), nematicide, contact activity, preventive: cucumber seed in filter paper pouch; assay type: in vivo; details: 288 h, cucumber cv. Toshka seed in pouch, 3000 eggs, twelve days, read-out: reduction of galling compared to the untreated control
Description: Meloidogyne spp. (Root-Knot Nematode) Nematicide, Contact Activity, Preventive. Filter papers (9 cm×4.5 cm) with a small pocket were placed into plastic pouches (12 cm×6 cm). One cucumber cv. Toshka seed was placed in the centre of the filter paper pocket of all the pouches needed for a test. The cucumber seeds in the pouches were treated with test solutions at 200 ppm by pipetting the solution directly over the cucumber seed in the filter paper pocket in the pouch. Prior to application, the compound solution was prepared at twice the concentration required and the egg suspension is prepared with FORL nutrient solution with 3000 eggs/0.5 ml. After applying all the treatments, 3000 eggs (in 0.5 ml of FORL nutrient solution) were pipetted into the pouches. The pouches were incubated in a moist chamber for twelve days and watered regularly to maintain good filter paper moisture essential for the growing cucumber root system. After this period, the filter paper containing the germinated cucumber seedling was removed from the plastic pouch to assess the number of galls caused by Meloidogyne spp. per root system. Phytotoxicity was measured as a reduction of growth of the emerged cucumber seedling in comparison to the control.

Q: What does the source list for `Cc1occc1C(=O)N[C@H]1CC[C@H]1c1ccc(Cl)cc1Cl` [Compound 61.64, N-[(1S,2S)-2-(2,4-dichlorophenyl)cyclobutyl]-2-methylfuran-3-carboxamide]?
A: pest or weed control at 200 ppm (Heterodera schachtii): > 75%; pest or weed control at 200 ppm (Meloidogyne spp.): > 80%

Q: With `O=C(N[C@H]1CC[C@H]1c1ccc(Cl)cc1Cl)c1c(F)cccc1Cl` [Compound 61.66, 2-chloro-N-[(1S,2S)-2-(2,4-dichlorophenyl)cyclobutyl]-6-fluorobenzamide] as the compound, how does the pest or weed control at 200 ppm (Heterodera schachtii) read?
A: > 75%

Q: What about the pest or weed control at 200 ppm (Meloidogyne spp.) of the same compound?
A: > 80%

Q: Which pest or weed control at 200 ppm (Heterodera schachtii) does the source give for `COc1cccc(F)c1C(=O)N[C@H]1CC[C@H]1c1ccc(Cl)cc1Cl` [Compound 61.68, N-[(1S,2S)-2-(2,4-dichlorophenyl)cyclobutyl]-2-fluoro-6-methoxybenzamide] here?
A: > 75%

Q: And the pest or weed control at 200 ppm (Meloidogyne spp.)?
A: > 80%

Q: Which results are given for `Cc1cccc(F)c1C(=O)N[C@H]1CC[C@H]1c1ccc(Cl)cc1Cl` [Compound 61.69, N-[(1S,2S)-2-(2,4-dichlorophenyl)cyclobutyl]-2-fluoro-6-methylbenzamide]?
A: pest or weed control at 200 ppm (Heterodera schachtii): > 75%; pest or weed control at 200 ppm (Meloidogyne spp.): > 80%

Q: For `Cn1cccc1C(=O)N[C@H]1CC[C@H]1c1ccc(Cl)cc1Cl` [Compound 61.76, N-[(1S,2S)-2-(2,4-dichlorophenyl)cyclobutyl]-1-methylpyrrole-2-carboxamide], which pest or weed control at 200 ppm (Heterodera schachtii) is on record?
A: > 75%

Q: And the pest or weed control at 200 ppm (Meloidogyne spp.)?
A: > 80%

Q: Which pest or weed control at 200 ppm (Heterodera schachtii) does the source give for `Cn1cc(C(=O)N[C@H]2CC[C@H]2c2ccc(Cl)cc2Cl)c(C(F)F)n1` [Compound 61.77, N-[(1S,2S)-2-(2,4-dichlorophenyl)cyclobutyl]-3-(difluoromethyl)-1-methylpyrazole-4-carboxamide] here?
A: > 75%

Q: And the pest or weed control at 200 ppm (Meloidogyne spp.)?
A: > 80%

Q: With `O=C(N[C@H]1CC[C@H]1c1ccc(Cl)cc1Cl)c1ccsc1Cl` [Compound 61.95, 2-chloro-N-[(1S,2S)-2-(2,4-dichlorophenyl)cyclobutyl]thiophene-3-carboxamide] as the compound, how does the pest or weed control at 200 ppm (Heterodera schachtii) read?
A: > 75%

Q: What about the pest or weed control at 200 ppm (Meloidogyne spp.) of the same compound?
A: > 80%
